Experimental data: patent publication EP2487171A1, “Dihydrobenzopyran, thiochroman, tetrahydroquinoleine and tetrahydronaphthalene derivatives and their use in anti-cancer therapy” (Université de Liège, priority 2011, dated 2012)

What was measured:
[1] = tested on: human U373 glioma cell line; experiment: Quantitative videomicroscopy (computer-assisted phase-contrast microscopy); assay type: cell-based; settings: U373 cells treated at the IC50 concentration from MTT, filmed for 72h; cytostatic versus cytotoxic effects
Source text: In addition, the inventors could establish that the compounds of the invention act through a non-apoptosis-related mechanism thanks to a unique experimental approach used by the inventors, i.e. computer-assisted phase-contrast microscopy (quantitative videomicroscopy), making them good candidates as anti-cancer drugs for treating apoptosis-resistant tumor or cancer cells and for overcoming problems linked to the known anti-cancer drugs.
As the MTT test is based on the mitochondria functions, we also investigated the effects of the compounds according to the invention on cell proliferation, migration and morphology by means of a cellular imaging approach (Debeir et al., Cytometry 60:29-40, 2004; Debeir et al., IEEE Trans Med Imaging 24:697-711, 2005) in the human U373 glioma cell line, which is apoptosis-resistant but autophagy-sensitive (Lefranc F et al., Neurosurgery 2008).
Cellular imaging relied on the use of computer-assisted phase-contrast microscopy making possible to film the behaviour of living cells in culture dishes for several days.
Cells were seeded in a 25-cm^2 flask at a low density, treated or not with the compounds of the invention (at their IC50 concentration determined previously by MTT tests) and filmed thereafter for a period of 72h. The experiment was conducted in triplicate.
The behaviour of the cells, in terms of morphology, growth and death were thus investigated. The effect on the overall growth was measured by counting the number of cells on the first (0h) and the last image (72h) of each film. The global growth ratio (GGR) was then deduced by dividing the number of cells on the last image by the number of cells on the first image. The ratio GGRtreated cells / GGRcontrol cells, was further calculated thereby obtaining a value that describes the effect of compounds of the present invention on the overall cell growth.
The methodology is fully described and validated in Debeir et al., 2008, Exp Cell Res 314:2985-2998 and Mathieu et al., 2009, J Cell Mol Med, Feb 20, 2009.
Thanks to the quantitative videomicroscopy (QVM) approach, we classified the compounds into 4 distinctive classes on the basis of their cytostatic versus cytotoxic effects (Table 3). • Class I: actually cytostatic for 3 days (< 10 % of cell death at the 3rd day) • Class II: cytostatic but becomes cytotoxic with < 10% cell death on the 2nd day and > 20% of cell death on the 3rd day • Class III: cytostatic but rapidly becomes cytotoxic with < 10% cell death on the 1st day, > 20% of cell death on the 2nd day and > 50% of cell death on the 3rd day • Class IV: cytotoxic (> 50% of cell death on the first day)
In Fig. 1a, compounds of example 14 (5 µM), example 19 (20 µM) and example 23 (5 µM) belong to QVM Class I because they display cytostatic effects on human U373 GBM cells during the whole duration of the experiment. Cytostatic effects mean that < 10 % of cell death was recorded at the end of the experiment, i.e. at the end of the 3rd day. QVM analyses enable the global growth ratio (GGR) to be calculated in each experiment. The GGR index is obtained by dividing the number of cells in the last image by the number of cells in the first image of the experiment, knowing that 1080 images are taken during the 72 h-period of observation. The ratio GGR^treated cells / GGR^control cells was further calculated thereby obtaining a value that describes the effect of compounds on the overall cell growth. Thus, a GGR index of 0.2 means that they remain only 20% of treated cells compare to the control cells at the end of the experiment.

U373 = experiment: MTT colorimetric assay, overall cell growth; assay type: cell-based; settings: Homo sapiens, U373 MG; U373 cells, 72 hours of incubation; read-out: IC50 (µM) In Vitro Growth Inhibitory Concentrations (MTT Colorimetric Assay) U373
Method: (§2) The compounds and particularly dihydrobenzopyran, thiochroman, tetrahydroquinoleine and tetrahydronaphthalene derivatives of the invention were evaluated for their anti-proliferative effect (by means of the colorimetric MTT assay), in the following human glioblastoma cell-lines U373, T98G and Hs683 and in the mouse glioma cell line GL261. Normal brain cells (primocultures from newborn mice) were also used in order to determine the bioselectivity (B^N/C) of the compounds of interest, i.e. the ratio between the concentrations that inhibits 50% of the growth of brain cancer (C) cells (glioma cells) and the concentration that inhibits 50% of the growth of normal (N) brain cells (primocultures of astrocytes). The ideal situation to be reached is a bioselectivity of B^N/C > 10.
(§3) MTT tests were performed in order to rapidly, i.e. within 5 days, measure the effect of compounds of this invention on the overall cell growth. The test measured the number of metabolically active living cells that were able to transform the yellow product 3-(4,5-dimethylthiazol-2-yl)-2,5-diphenyl tetrazolium bromide (herein referred as MTT) into the blue product formazan dye by mitochondrial reduction. The amount of formazan obtained at the end of the experiment, measured by means of a spectrophotometer, is directly proportional to the number of living cells. Optical density determination thus enabled a quantitative measurement of the effect of the investigated compounds as compared to the control condition (untreated cells) and/or to other reference compounds.
(§4) Three human cancer cell lines were used in the following MTT tests.
(§5) To perform the assay, cells were allowed to grow in 96-well micro-wells with a flat bottom with an amount of 100 µl of cell suspension per well with 1,000 to 8,000 cells/well depending on the cell type used. Each cell line was seeded in its appropriate culture medium.
(§6) The detailed experimental procedure was the following: after a 24-hour period of incubation at 37°C, the culture medium was replaced by 100 µl of fresh medium in which the tested compound was previously dissolved, at the following molar concentrations: 10^-8 M, 5.10^-8 M, 10^-7 M, 5.10^-7 M, 10^-6 M, 5.10^-6 M, 10^-5 M, 5.10^-5 M and 10^-4 M. Each experiment was performed in sextuplicate (6 times).
(§7) After 72 hours of incubation at 37°C with (experimental conditions) or without (control condition) the compound to be tested, the medium was replaced by 100 µl MTT dissolved in RPMI (1640 without phenol red) at a concentration of 0.5 mg/ml. The micro-wells were subsequently incubated during 3 hours and a half at 37°C and centrifuged at 1300 rpm during 10 minutes. MTT was removed and formazan crystals formed were dissolved in 100 µl DMSO. The micro-wells were shaken for 5 minutes and read on a spectrophotometer at wavelengths of 570 nm (maximal formazan absorbance).
(§8) For each experimental condition, the mean optical density was calculated, allowing the determination of the percentage of remaining living cells in comparison to the control.

[2] = tested on: three Human Glioma Cell Lines; experiment: MTT colorimetric assay, mean over the three glioma cell lines; assay type: cell-based; settings: mean of the three human glioma cell lines, 72h (Table 2); read-out: Mean IC50 MTT values ± SEM (µM) Glioma - Human Brain cancer cells (I - 72h)
Method: (§1) Table 2: Bioselectivity determined by dividing the IC50 obtained with glioma cell lines by the IC50 obtained with normal astrocytes. Bioselectivity was determined only for those compounds whose mean + SEM values on the three human glioma cell lines were ≤ 20 µM.

[3] = tested on: Astrocytes - Mouse normal brain cells; experiment: MTT colorimetric assay on normal astrocytes (bioselectivity); assay type: cell-based
Method: as §1

[4] = tested on: Astrocytes - Mouse normal brain cells; experiment: as above; assay type: cell-based; settings: Astrocyte, primocultures of astrocytes from newborn mice, 72h, read-out: Mean IC50 MTT values ± SEM (µM) Astrocytes - Mouse normal brain cells (II - 72h)
Hs683 = experiment: MTT colorimetric assay, overall cell growth; assay type: cell-based; settings: Homo sapiens, Hs 683; Hs683 cells, 72 hours of incubation; read-out: IC50 (µM) In Vitro Growth Inhibitory Concentrations (MTT Colorimetric Assay) Hs683
Method: as §2, §3, §4, §5, §6, §7, §8

T98G = experiment: MTT colorimetric assay, overall cell growth; settings: Homo sapiens, 72 h, read-out: IC50 (µM) In Vitro Growth Inhibitory Concentrations (MTT Colorimetric Assay) T98G;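 note: growth inhibition of the human glioblastoma line measured by MTT reduction to formazan, optical density read on a spectrophotometer at 570 nm, untreated cells as control, nine concentrations from 10 nM to 100 µM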
Method: The compounds and particularly dihydrobenzopyran, thiochroman, tetrahydroquinoleine and tetrahydronaphthalene derivatives of the invention were evaluated for their anti-proliferative effect (by means of the colorimetric MTT assay), in the following human glioblastoma cell-lines U373, T98G and Hs683 and in the mouse glioma cell line GL261. Normal brain cells (primocultures from newborn mice) were also used in order to determine the bioselectivity (B^N/C) of the compounds of interest, i.e. the ratio between the concentrations that inhibits 50% of the growth of brain cancer (C) cells (glioma cells) and the concentration that inhibits 50% of the growth of normal (N) brain cells (primocultures of astrocytes).
as §3, §4, §5, §6
The micro-wells were subsequently incubated during 3 hours and a half at 37°C and centrifuged at 1300 rpm during 10 minutes. MTT was removed and formazan crystals formed were dissolved in 100 µl DMSO. The micro-wells were shaken for 5 minutes and read on a spectrophotometer at wavelengths of 570 nm (maximal formazan absorbance).
as §8

CC(C)(C)OC(=O)Nc1ccc2c(c1)C(NC(=O)Nc1cccc(C#N)c1)CC(C)(C)O2 (racemic) [Example 14, R/S-N-3-cyanophenyl-N'-(6-tert-butoxycarbonylamino-3,4-dihydro-2,2-dimethyl-2H-1-benzopyran-4-yl)urea]
QVM Class [1]: I (Class I: actually cytostatic for 3 days (< 10 % of cell death at the 3rd day)) | IC50 (U373): 2 µM | IC50 [2]: 2 ± 1 µM | Bioselectivity (I / II) [3]: > 10 | IC50 [4]: > 20 µM | IC50 (Hs683): 2 µM | IC50 (T98G): 3 µM

CC(C)(C)OC(=O)Nc1ccc2c(c1)C(NC(=O)Nc1ccc(C#N)cc1)CC(C)(C)O2 (racemic) [Example 15, R/S-N-4-cyanophenyl-N'-(6-tert-butoxycarbonylamino-3,4-dihydro-2,2-dimethyl-2H-1-benzopyran-4-yl)urea]
QVM Class [1]: I (Class I: actually cytostatic for 3 days (< 10 % of cell death at the 3rd day)) | IC50 (U373): 10 µM | IC50 [2]: 18 ± 5 µM | Bioselectivity (I / II) [3]: >10 | IC50 [4]: > 200 µM | IC50 (Hs683): 18 µM | IC50 (T98G): 26 µM

CC(C)(C)OC(=O)Nc1ccc2c(c1)C(NC(=O)Nc1cccc([N+](=O)[O-])c1)CC(C)(C)O2 (racemic) [Example 23, R/S-N-3-nitrophenyl-N'-(6-tert-butoxycarbonylamino-3,4-dihydro-2,2-dimethyl-2H-1-benzopyran-4-yl)urea]
QVM Class [1]: I (Class I: actually cytostatic for 3 days (< 10 % of cell death at the 3rd day)) | IC50 (U373): 1 µM | IC50 [2]: 8 ± 4 µM | Bioselectivity (I / II) [3]: < 5 | IC50 [4]: < 40 µM | IC50 (Hs683): 16 µM | IC50 (T98G): 7 µM

CC(C)(C)OC(=O)Nc1ccc2c(c1)C(NC(=O)Nc1cccc(Cl)c1)CC(C)(C)O2 (racemic) [Example 16, R/S-N-3-chlorophenyl-N'-(6-tert-butoxycarbonylamino-3,4-dihydro-2,2-dimethyl-2H-1-benzopyran-4-yl)urea]
QVM Class [1]: III (Class III: cytostatic but rapidly becomes cytotoxic with < 10% cell death on the 1st day, > 20% of cell death on the 2nd day and > 50% of cell death on the 3rd day) | IC50 (U373): 18 µM | IC50 [2]: 17 ± 3 µM | Bioselectivity (I / II) [3]: >12 | IC50 [4]: > 200 µM | IC50 (Hs683): 12 µM | IC50 (T98G): 20 µM

CC(C)(C)OC(=O)Nc1ccc2c(c1)C(NC(=O)Nc1cccc(C(F)(F)F)c1)CC(C)(C)O2 (racemic) [Example 25, R/S-N-3-trifluoromethylphenyl-N'-(6-tert-butoxycarbonylamino-3,4-dihydro-2,2-dimethyl-2H-1-benzopyran-4-yl)urea]
QVM Class [1]: II (Class II: cytostatic but becomes cytotoxic with < 10% cell death on the 2nd day and > 20% of cell death on the 3rd day) | IC50 (U373): 9 µM | IC50 [2]: 13 ± 4 µM | Bioselectivity (I / II) [3]: < 2 | IC50 [4]: ~20 µM | IC50 (Hs683): 8 µM | IC50 (T98G): 21 µM

CC(C)(C)OC(=O)Nc1ccc2c(c1)C(NC(=O)Nc1cc(F)cc(F)c1)CC(C)(C)O2 (racemic) [Example 21, R/S-N-3,5-difluorophenyl-N'-(6-tert-butoxycarbonylamino-3,4-dihydro-2,2-dimethyl-2H-1-benzopyran-4-yl)urea]
QVM Class [1]: I (Class I: actually cytostatic for 3 days (< 10 % of cell death at the 3rd day)) | IC50 (U373): 6 µM | IC50 [2]: 9 ± 3 µM | Bioselectivity (I / II) [3]: ∼ 5 | IC50 [4]: ~45 µM | IC50 (Hs683): 7 µM | IC50 (T98G): 14 µM

CC(C)(C)OC(=O)Nc1ccc2c(c1)C(NC(=O)Nc1cc(C(F)(F)F)cc(C(F)(F)F)c1)CC(C)(C)O2 (racemic) [Example 29, R/S-N-3,5-di(trifluoromethyl)phenyl-N'-(6-tert-butoxycarbonylamino-3,4-dihydro-2,2-dimethyl-2H-1-benzopyran-4-yl)urea]
QVM Class [1]: I (Class I: actually cytostatic for 3 days (< 10 % of cell death at the 3rd day)) | IC50 (U373): 4 µM | IC50 [2]: 4 ± 1 µM | Bioselectivity (I / II) [3]: ∼ 5 | IC50 [4]: ~20 µM | IC50 (Hs683): 3 µM | IC50 (T98G): 5 µM

CC(C)(C)OC(=O)Nc1ccc2c(c1)C(NC(=O)Nc1cc(C(F)(F)F)ccc1Cl)CC(C)(C)O2 (racemic) [Example 31, R/S-N-2-chloro-5-trifluoromethylphenyl-N'-(6-tert-butoxycarbonylamino-3,4-dihydro-2,2-dimethyl-2H-1-benzopyran-4-yl)urea]
QVM Class [1]: II (Class II: cytostatic but becomes cytotoxic with < 10% cell death on the 2nd day and > 20% of cell death on the 3rd day) | IC50 (U373): 15 µM | IC50 (Hs683): 12 µM | IC50 (T98G): 38 µM

CC(C)(C)OC(=O)Nc1ccc2c(c1)C(NC(=O)Nc1cc(Cl)cc(Cl)c1)CC(C)(C)O2 (racemic) [Example 26, R/S-N-3,5-dichlorophenyl-N'-(6-tert-butoxycarbonylamino-3,4-dihydro-2,2-dimethyl-2H-1-benzopyran-4-yl)urea]
QVM Class [1]: II (Class II: cytostatic but becomes cytotoxic with < 10% cell death on the 2nd day and > 20% of cell death on the 3rd day) | IC50 (U373): 6 µM | IC50 [2]: 9 ± 2 µM | Bioselectivity (I / II) [3]: < 5 | IC50 [4]: ~40 µM | IC50 (Hs683): 9 µM | IC50 (T98G): 12 µM

CC(C)(C)OC(=O)Nc1ccc2c(c1)C(NC(=O)Nc1ccc([N+](=O)[O-])cc1)CC(C)(C)O2 (racemic) [Example 22, R/S-N-4-nitrophenyl-N'-(6-tert-butoxycarbonylamino-3,4-dihydro-2,2-dimethyl-2H-1-benzopyran-4-yl)urea]
QVM Class [1]: IV (Class IV: cytotoxic (> 50% of cell death on the first day)) | IC50 (U373): 24 µM | IC50 (Hs683): 20 µM | IC50 (T98G): 26 µM

CC(C)(C)OC(=O)Nc1ccc2c(c1)C(NC(=O)Nc1ccc(C(F)(F)F)cc1)CC(C)(C)O2 (racemic) [Example 24, R/S-N-4-trifluoromethylphenyl-N'-(6-tert-butoxycarbonylamino-3,4-dihydro-2,2-dimethyl-2H-1-benzopyran-4-yl)urea]
QVM Class [1]: I (Class I: actually cytostatic for 3 days (< 10 % of cell death at the 3rd day)) | IC50 (U373): 10 µM | IC50 [2]: 12 ± 1 µM | Bioselectivity (I / II) [3]: > 10 | IC50 [4]: > 120 µM | IC50 (Hs683): 11 µM | IC50 (T98G): 15 µM

CC(C)(C)OC(=O)Nc1ccc2c(c1)C(NC(=O)Nc1c(Cl)cccc1C(F)(F)F)CC(C)(C)O2 (racemic) [Example 32, R/S-N-2-chloro-6-trifluoromethylphenyl-N'-(6-tert-butoxycarbonylamino-3,4-dihydro-2,2-dimethyl-2H-1-benzopyran-4-yl)urea]
QVM Class [1]: III (Class III: cytostatic but rapidly becomes cytotoxic with < 10% cell death on the 1st day, > 20% of cell death on the 2nd day and > 50% of cell death on the 3rd day) | IC50 (U373): 60 µM | IC50 (Hs683): 66 µM | IC50 (T98G): 60 µM
